Measurements taken from PMC6952103, “Biochemical characterization of Ty1 retrotransposon protease” (PLoS ONE, 2020).
Several values for one entry are separate records, joined by “and”; a condition that tells them apart may be missing. Equal entries are not always repeated. Entries after “also recorded” stand apart in the source; their conditions may differ. Where two headings read alike, the source gives them in different places.

Legend:
XMRV PR = conditions: cited from earlier work
Source text: (§1) Despite the fact that out of the tested inhibitors only acet ...

Ty1 PR-His6 [1] = target: T1, Ty1 PR-His6 (Saccharomyces cerevisiae, UniProt Q07793); assay: Inhibition study of Ty1 PR-His6; format: biochemical; conditions: Ty1 PR-His6 (400–1600 nM), VPTIN*NVHTS 0.44 mM, inhibitor ≥100 nM final, DMSO, peptide buffer A, 2 h at 30°C
T1 construct: made in house; host or cells: E. coli BL21(DE3), pET11a Gag-PR-His6 (gift of J.F. Lawler); soluble fraction, Ni-chelate chromatography, autoprocessed
T1 sequence (Q07793 402-582 limits assumed): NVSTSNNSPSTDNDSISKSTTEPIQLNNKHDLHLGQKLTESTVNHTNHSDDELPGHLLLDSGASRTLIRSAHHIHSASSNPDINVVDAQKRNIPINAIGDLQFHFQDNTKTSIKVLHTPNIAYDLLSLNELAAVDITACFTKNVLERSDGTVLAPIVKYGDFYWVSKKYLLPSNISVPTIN
Protocol: Ty1 PR-His6 activity was measured in the presence of various HIV-1 protease inhibitors. […] To study effect of inhibitors on proteolytic activity, reaction mixtures contained 5 μl purified Ty1 PR-His6 (400–1600 nM), 10 μl peptide buffer A, 4.8 μl oligopeptide substrate (VPTIN*NVHTS, 0.44 mM), and 0.2 μl inhibitor. For screening, inhibitors were dissolved in DMSO to have ≥100 nM final concentration. DMSO solution containing no inhibitor was used as control. Reaction mixtures were incubated for 2 h at 30°C.

HIV-1 PR = conditions: cited from earlier work
Source text: For instance, the optimal pH of HFV protease is 6.6–6.8 [40] while that of HIV-1 PR is between 4 and 6 [41]. […] Higher sensitivity to urea implies lower dimer stability for Ty1 protease, the possible structural background of this difference is discussed later in the In silico structural analysi ... || (+ 1 further places)

HFV PR = conditions: ref [40], cited from earlier work; for kcat/Km: buffer optimized for that protease
Source text: Similarly low catalytic activities were also observed previously for HFV and the Gag-encoded Avian myeloblastosis virus (AMV) proteases. Both the untagged, and the His6-tagged (self-processed) PRs cleaved th ...

Ty1 PR = target: T2, Ty1 PR (Saccharomyces cerevisiae, UniProt Q07793); assay: Oligopeptide-based proteolytic assay (HPLC), untagged Ty1 PR; format: biochemical; conditions: peptide buffer A pH 7.0, 30 °C; for cleavage (in words): Ty1 PR, oligopeptide substrate 2 mg/ml stock, 2 up to 5 h
T2 construct: the protease domain of Ty1 is unusually long, consisting of 181 residues; made in house; host or cells: E. coli BL21(DE3), pET11a
T2 sequence (Q07793 402-582 limits assumed): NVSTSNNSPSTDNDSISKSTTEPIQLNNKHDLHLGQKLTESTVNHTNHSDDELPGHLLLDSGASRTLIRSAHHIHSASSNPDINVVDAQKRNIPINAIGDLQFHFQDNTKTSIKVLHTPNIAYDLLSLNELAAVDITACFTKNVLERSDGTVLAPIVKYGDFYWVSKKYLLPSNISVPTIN
Protocol: (§2) The oligopeptides used in the proteolytic assays (Table 1A) were synthesized as previously described. Reaction mixtures contained 10 μl peptide buffer A (20 mM PIPES, 100 mM NaCl, 0.5% Nonidet P-40, 10% glycerol, 2 mM dithiotreitol (DTT), pH 7.0), 5 μl purified Ty1 PR-His6 (processed from Ty1 Gag-PR-His6) or Ty1 PR, and 5 μl oligopeptide substrate (2 mg/ml) dissolved in water. Reaction mixtures were incubated for the different experiments from 2 up to 5 h at 30°C. The reactions were stopped by the addition of 180 μl 1% trifluoroacetic acid (TFA).
(§3) The products were separated by an HPLC-based method using a 0–100% water-acetonitrile gradient in the presence of TFA on Merck Hitachi instrument. For enzyme kinetic measurements, VPTIN*NVHTS oligopeptide substrate (representing Ty1 PR/IN cleavage site) was used at 0.2–1.2 mM; Ty1 PR (400–1600 nM) was incubated with the substrate at 30 °C for 2 h, whereas Ty1 PR-His6 (500–1500 nM) was incubated for 2.5 h. Kinetic parameters (shown in Table 1A) were determined by fitting the data obtained at less than 20% substrate hydrolysis to the Michaelis-Menten equation using GraphPad Prism version 5.00 for Windows (GraphPad Software, La Jolla California USA, www.graphpad.com). Statistical significances were determined by GraphPad QuickCalcs (https://www.graphpad.com/quickcalcs/ttest2).
(§4) For investigation of optimal conditions for enzyme folding, Ty1 PR was dialyzed against various buffers and buffer combinations that have been shown previously to be suitable for retroviral protease activity. In peptide-based assays, both protease and oligopeptide solutions were added to the buffer, and the reaction mixtures were incubated at 30°C, and stopped by the addition TFA. The mixtures were then injected onto a reversed-phase chromatography column in order to separate substrates and cleavage products, the substrate turnover was determined by integration of peak areas.

Ty1 PR-His6 [2] = target: T1, Ty1 PR-His6; assay: Oligopeptide-based proteolytic assay (HPLC), Ty1 PR-His6; format: biochemical; conditions: for cleavage (in words): Ty1 PR-His6, oligopeptide substrate 2 mg/ml stock, 2 up to 5 h
Protocol: as §2, §3, §4

[3] = target: Copia transposon protease; conditions: ref [17]; cited from earlier work
Source text: as §1

[4] = tested on: Copia transposon protease; conditions: ref [17], cited from earlier work
Protocol: The dependence of enzyme activity on ionic strength was studied, and highest activities were measured at 1.5–2 M NaCl concentration (Fig 4A). […] For instance, the optimal pH of HFV protease is 6.6–6.8 [40] while that of HIV-1 PR is between 4 and 6 [41].

[5] = peptide buffer A pH 7.0, 30 °C, HPLC
[6] = Ty1 PR (400–1600 nM), substrate 0.2–1.2 mM, 2 h, SD (n≥2)
[7] = Ty1 PR-His6 (500–1500 nM), substrate 0.2–1.2 mM, peptide buffer A pH 7.0, 30 °C, 2.5 h, HPLC, SD (n≥2)

O=C1N(Cc2ccc(CO)cc2)[C@H](Cc2ccccc2)[C@H](O)[C@@H](O)[C@@H](Cc2ccccc2)N1Cc1ccc(CO)cc1 [DMP-323]
inhibition (in words) (XMRV PR; ref [45]): able to inhibit
inhibition of proteolytic activity (in words) (Ty1 PR-His6 [1]): unable to inhibit

CC(C)CN(C[C@@H](O)[C@H](Cc1ccccc1)NC(=O)O[C@H]1CCOC1)S(=O)(=O)c1ccc(N)cc1 [amprenavir]
inhibition (in words) (XMRV PR; ref [45]): able to inhibit
inhibition of proteolytic activity (in words) (Ty1 PR-His6 [1]): unable to inhibit

COC(=O)N[C@H](C(=O)N[C@@H](Cc1ccccc1)[C@@H](O)CN(Cc1ccc(-c2ccccn2)cc1)NC(=O)[C@@H](NC(=O)OC)C(C)(C)C)C(C)(C)C [atazanavir]
inhibition (in words) (XMRV PR; ref [45]): able to inhibit
inhibition of proteolytic activity (in words) (Ty1 PR-His6 [1]): unable to inhibit

CC(C)CN(C[C@@H](O)[C@H](Cc1ccccc1)NC(=O)O[C@H]1CO[C@H]2OCC[C@H]21)S(=O)(=O)c1ccc(N)cc1 [darunavir]
inhibition (in words) (XMRV PR; ref [45]): able to inhibit
inhibition of proteolytic activity (in words) (Ty1 PR-His6 [1]): unable to inhibit

Cc1cccc(C)c1OCC(=O)N[C@@H](Cc1ccccc1)[C@@H](O)C[C@H](Cc1ccccc1)NC(=O)[C@H](C(C)C)N1CCCNC1=O [lopinavir]
inhibition (in words) (XMRV PR; ref [45]): able to inhibit
inhibition of proteolytic activity (in words) (Ty1 PR-His6 [1]): unable to inhibit

Cc1c(O)cccc1C(=O)N[C@@H](CSc1ccccc1)[C@H](O)CN1C[C@H]2CCCC[C@H]2C[C@H]1C(=O)NC(C)(C)C [nelfinavir]
inhibition of proteolytic activity (in words) (Ty1 PR-His6 [1]): unable to inhibit

CC(C)(C)NC(=O)[C@@H]1C[C@@H]2CCCC[C@@H]2CN1C[C@@H](O)[C@H](Cc1ccccc1)NC(=O)[C@H](CC(N)=O)NC(=O)c1ccc2ccccc2n1 [saquinavir]
inhibition of proteolytic activity (in words) (Ty1 PR-His6 [1]): unable to inhibit

CCC[C@@]1(CCc2ccccc2)CC(O)=C([C@H](CC)c2cccc(NS(=O)(=O)c3ccc(C(F)(F)F)cn3)c2)C(=O)O1 [tipranavir]
inhibition (in words) (XMRV PR; ref [45]): able to inhibit
inhibition of proteolytic activity (in words) (Ty1 PR-His6 [1]): unable to inhibit

HIV-1 PR: human immunodeficiency virus type 1 protease
activity at 37°C (in words) (HIV-1 PR; HIV-1 PR, 37°C, ref [41]): highly active
UC50 (urea) (HIV-1 PR; HIV-1 PR, ref [29]): 1.47 M

IHLIA*AVKAV [synthetic oligopeptide substrate representing the IN/RT cleavage site of Ty1]
kcat/Km (HFV PR): 0.002 ± 0.0004 mM⁻¹ s⁻¹
Km (HFV PR): 1000 ± 160 µM
kcat (HFV PR): 0.0020 ± 0.0002 s⁻¹
cleavage (in words) (Ty1 PR): no cleavage was observed
cleavage (in words) (Ty1 PR-His6 [2]; [5]): no cleavage was observed

T26S mutant HIV-1 protease
specific activity compared to wild-type (in words) (HIV-1 PR; T26S mutant, ref [49]): lower specific activity

TARAH*NVSTS [synthetic oligopeptide substrate representing the Gag/PR cleavage site of Ty1]
hydrolysis (in words) (HFV PR): not hydrolyzed
cleavage (in words) (Ty1 PR): no cleavage was observed
cleavage (in words) (Ty1 PR-His6 [2]; [5]): no cleavage was observed

VPTIN*NVHTS [synthetic oligopeptide substrate representing the PR/IN cleavage site of Ty1]
kcat/Km (HFV PR): 0.007 mM⁻¹ s⁻¹ and 0.007 ± 0.0024 mM⁻¹ s⁻¹
Km (HFV PR): 30 ± 10 µM
kcat (HFV PR): 0.0002 ± 0.00003 s⁻¹
Km (Ty1 PR; [6]): 210 ± 70 µM
kcat (Ty1 PR; [6]): 0.006 ± 0.001 s⁻¹
kcat/Km (Ty1 PR; [6]): 0.028 ± 0.0105 mM⁻¹ s⁻¹
cleavage (in words) (Ty1 PR): cleaved
Km (Ty1 PR-His6 [2]; [7]): 250 ± 90 µM
kcat (Ty1 PR-His6 [2]; [7]): 0.009 ± 0.001 s⁻¹
kcat/Km (Ty1 PR-His6 [2]; [7]): 0.036 ± 0.0132 mM⁻¹ s⁻¹
cleavage (in words) (Ty1 PR-His6 [2]; [5]): cleaved
difference of specificity constants between untagged Ty1 PR and Ty1 PR-His6 (in words) (Ty1 PR-His6 [2]; Ty1 PR-His6 versus untagged Ty1 PR): not significant statistically

pepstatin A
inhibition (in words) (XMRV PR; ref [29]): weak inhibitors
Ki [3]: 15 nM
inhibition of proteolytic activity (in words) (Ty1 PR-His6 [1]): no inhibitory potential; also recorded: unable for the inhibition

B1: Copia transposon protease: Copia transposon protease of D. melanogaster (protein, UniProt P04146 271-1409, looked up)
Copia protease: IAFMVKEVNNTSVMDNCGFVLDSGASDHLINDESLYTDSVEVVPPLKIAVAKQGEFIYATKRGIVRLRNDHEITLEDVLFCKEAAGNLMSVKRLQEAGMSIEFDKSGVTISKNGLMVVKNSGMLNNVPVINFQAYSINAKHKNNFRLWHERFGHISDGKLLEIKRKNMFSDQSLLNNLELSCEICEPCLNGKQARLPFKQLKDKTHIKRPLFVVHSDVCGPITPVTLDDKNYFVIFVDQFTHYCVTYLIKYKSDVFSMFQDFVAKSEAHFNLKVVYLYIDNGREYLSNEMRQFCVKKGISYHLTVPHTPQLNGVSERMIRTITEKARTMVSGAKLDKSFWGEAVLTATYLINRIPSRALVDSSKTPYEMWHNKKPYLKHLRVFGATVYVHIKNKQGKFDDKSFKSIFVGYEPNGFKLWDAVNEKFIVARDVVVDETNMVNSRAVKFETVFLKDSKESENKNFPNDSRKIIQTEFPNESKECDNIQFLKDSKESENKNFPNDSRKIIQTEFPNESKECDNIQFLKDSKESNKYFLNESKKRKRDDHLNESKGSGNPNESRESETAEHLKEIGIDNPTKNDGIEIINRRSERLKTKPQISYNEEDNSLNKVVLNAHTIFNDVPNSFDEIQYRDDKSSWEEAINTELNAHKINNTWTITKRPENKNIVDSRWVFSVKYNELGNPIRYKARLVARGFTQKYQIDYEETFAPVARISSFRFILSLVIQYNLKVHQMDVKTAFLNGTLKEEIYMRLPQGISCNSDNVCKLNKAIYGLKQAARCWFEVFEQALKECEFVNSSVDRCIYILDKGNINENIYVLLYVDDVVIATGDMTRMNNFKRYLMEKFRMTDLNEIKHFIGIRIEMQEDKIYLSQSAYVKKILSKFNMENCNAVSTPLPSKINYELLNSDEDCNTPCRSLIGCLMYIMLCTRPDLTTAVNILSRYSSKNNSELWQNLKRVLRYLKGTIDMKLIFKKNLAFENKIIGYVDSDWAGSEIDRKSTTGYLFKMFDFNLICWNTKRQNSVAASSTEAEYMALFEAVREALWLKFLLTSINIKLENPIKIYEDNQGCISIANNPSCHKRAKHIDIKYHFAREQVQNNVICLEYIPTENQLADIFTKPLPAARFVELRDKLGLLQDDQSNAE
modifications: Copia protease
notes: Copia transposon protease of D. melanogaster
relative activity ([4]; 20–70°C temperature range): ≥ 50%
NaCl concentration of highest activity ([4]; Copia transposon protease): 2 M
pH at which synthetic substrate is cleaved most efficiently ([4]; Copia transposon protease): 4.0
temperature of highest activity ([4]; Copia transposon protease): 70 °C
